Test results published in paper PMC10986512 (Microbiology Spectrum, 2024).
Converted amounts (≈) assume the structure as drawn. “And” between values parts separate entries of the source, which are not always exact repeats. Identical values can stand only once. Like-named read-outs stand apart in the source and are kept apart here.

Assays:
[1] = system: VACV; assay: microbe, parasite or virus in culture; type: cell-based, vaccinia virus (Western Reserve strain); conditions: for EC50: Orthopoxvirus vaccinia
[2] = in vitro
[3] = system: MPXV; type: cell-based, Mpox virus (West African clade US2003, clade IIa)
[4] = physchem; conditions: pH 7.4, aqueous buffer
[5] = system: VACV; parameters: species or system BALB/c mice; conditions: mouse, in vivo
[6] = system: NS5B-mediated replication of hepatitis C virus RNA; conditions: cited from earlier work
[7] = system: RPXV; assay: microbe, parasite or virus in culture; type: cell-based; conditions: Rabbitpox virus, RAW264.7
[8] = system: VACV; type: in vivo, BALB/c mice; conditions: 21 days
[9] = system: CPXV; assay: microbe, parasite or virus in culture; type: cell-based, cowpox virus (Brighton Red strain); conditions: Cowpox virus
[10] = in vitro; conditions: mouse, plasma
[11] = in vivo; conditions: C57BL/6, mouse
[12] = system: VACV; parameters: species or system BALB/c mice; conditions: mouse, in vivo; remark: listed apart in the source
[13] = dog, in vivo; cited from earlier work
[14] = rat, in vivo; cited from earlier work

SMILES: O=C(NN1C(=O)[C@@H]2[C@@H]3C=C[C@@H]([C@H]4C[C@@H]34)[C@@H]2C1=O)c1ccc(C(F)(F)F)cc1 [ST-246]
- SI [1]: >750 and >666.7
- EC50 [1]: 1 to 10 nM
- CC50 [2]: > 30000 nM
- SI [3]: >2189.8

SMILES: C[C@@]1(O)[C@H](O)[C@@H](CO)O[C@H]1n1cc(F)c2c(N)ncnc21 [UMM-766, 7-fluoro-7-deaza-2′-C-methyladenosine]
- solubility [4]: 3300 µg/mL (≈ 11.1 mM)
- EC50 and EC90 in MRC5 cells relative to RAW cells [1]: 3- to 15 fold
- EC50 [1]: < 1000 nM
- animals that met euthanasia criteria or died [5]: two
- maximum percentage weight change [5]: −30.5% and −29.3% and −24.4%
- median survival [5]: 8 days
- effect on NS5B-mediated replication of hepatitis C virus RNA [6]: decrease NS5B-mediated replication of hepatitis C virus RNA by chain termination
- EC50 [7]: < 1000 nM
- survival [8]: 66.7% and 80% and 100%
- EC50 [9]: 2170 nM
- EC50 ([9]; MRC5): 8090 nM
- fraction unbound [10]: 0.844
- bioavailability [11]: 48.8%
- clearance [11]: 154 mL/min/kg
- half-life [11]: 2.9 h
- IHC labeling in nasal cavity/turbinates [12]: minimal or absent labeling
- hemorrhage in the olfactory bulb [12]: completely absent
- meningeal necrosis in the olfactory bulb [12]: absent in two 3-mg/kg animals and two 10-mg/kg animals
- necrosis of the olfactory epithelium (nasal cavity, H&E) [12]: two animals having minimal necrosis and two with moderate necrosis
- severity of IHC labeling in nasal cavity/turbinates [12]: markedly reduced
- severity/degree of IHC labeling in the lung [12]: mostly mild
- IHC labeling in nasal cavity/turbinates ([12]; 10 mg/kg): labeling was absent
- highest tolerable dose [13]: 10 mg/kg
- highest tolerable dose [14]: 10 mg/kg
